From US20080171732A1, “New Pyridine Analogues IX 519” (AstraZeneca AB, priority 2007, published 2008) come the findings set out here.

Structures are written as SMILES.

This assay concerns the target T1, P2Y12 receptor (Homo sapiens, UniProt Q9H244).
T1 construct: expressed in transfected cells; host or cells: CHO cells (membranes)
The assay can be described thus: Functional inhibition of 2-Me-S-ADP induced P2Y12 signalling (35S-GTPγS, cell membranes from P2Y12 transfected CHO-cells). The note with it: EC80 concentration of agonist 2-methyl-thio-adenosine diphosphate, 30° C., 45 min. It is filed as biochemical. On the procedure:
Functional inhibition of-the P2Y12 receptor can be measured by in vitro assays using cell membranes from P2Y12 transfected CHO-cells, the methodology is indicated below.
(§1) Functional inhibition of 2-Me-S-ADP induced P2Y12 signalling: 5 μg of membranes were diluted in 200 μl of 200 mM NaCl, 1 mM MgCl2, 50 mM HEPES (pH 7.4), 0.01% BSA, 30μg/ml saponin and 10 μM GDP. To this was added an EC80 concentration of agonist (2-methyl-thio-adenosine diphosphate), the required concentration of test compound and 0.1 μCi ^35S-GTPγS. The reaction was allowed to proceed at 30° C. for 45 min. Samples were then transferred on to GF/B filters using a cell harvester and washed with wash buffer (50 mM Tris (pH 7.4), 5 mM MgCl2, 50 mM NaCl). Filters were then covered with scintilant and counted for the amount of ^35S-GTPγS retained by the filter. Maximum activity was that determined in the presence of the agonist and minimum activity in the absence of the agonist following subtraction of the value determined for non-specific activity. The effect of compounds at various concentrations was plotted according to the equation
y=A+((B−A)/(1+((C/x)̂D)))
and IC50 estimated where • A is the bottom plateau of the curve i.e. the final minimum y value • B is the top of the plateau of the curve i.e. the final maximum y value • C is the x value at the middle of the curve. This represents the log EC50 value when A+B=100 • D is the slope factor. • x is the original known x values. • Y is the original known y values.
as §1, with “30 μg/ml” for “30μg/ml”, “0. 1” for “0.1”

T1 sequence (Q9H244 whole entry): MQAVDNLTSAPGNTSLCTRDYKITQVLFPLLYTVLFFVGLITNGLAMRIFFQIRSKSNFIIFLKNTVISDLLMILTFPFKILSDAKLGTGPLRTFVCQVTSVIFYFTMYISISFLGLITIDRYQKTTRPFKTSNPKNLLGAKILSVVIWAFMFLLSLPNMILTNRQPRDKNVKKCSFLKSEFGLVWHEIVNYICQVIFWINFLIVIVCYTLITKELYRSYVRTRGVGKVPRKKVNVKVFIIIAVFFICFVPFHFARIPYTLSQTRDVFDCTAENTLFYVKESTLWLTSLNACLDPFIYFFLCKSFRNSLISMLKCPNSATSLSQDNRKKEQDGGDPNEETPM

By IC50 is commonly meant the point on the concentration scale where inhibition reaches its midpoint. High values mean weaker potency in that assay, low ones greater potency in that assay. `CCOC(=O)c1cc(C#N)c(N2CC(C(=O)NS(=O)(=O)Cc3ccc(Cl)cc3)C2)nc1OC` [Example 25, Ethyl6-(3-{[(4-chlorobenzyl)sulfonyl]carbamoyl}azetidin-1-yl)-5-cyano-2-methoxynicotinate] had an IC50 of 0.006 µM.

Compound `CCOC(=O)c1cc(C#N)c(N2CC(C(=O)NS(=O)(=O)Cc3ccccc3)C2)nc1OCC` [Example 38, Ethyl6-{3-[(benzylsulfonyl)carbamoyl]azetidin-1-yl}-5-cyano-2-ethoxynicotinate] came in with a concentration for half-maximal inhibition (IC50) of 0.047 µM.

Compound `CCOC(=O)c1cc(C#N)c(N2CCC(C(=O)NS(=O)(=O)Cc3ccc(F)cc3)CC2)nc1OC` [Example 11, Ethyl5-cyano-6-(4-{[(4-fluorobenzyl)sulfonyl]carbamoyl}piperidin-1-yl)-2-methoxynicotinate] showed an IC50 of 0.009 µM.

`CCOC(=O)c1cc(C#N)c(N2CC(C(=O)NS(=O)(=O)Cc3ccccc3)C2)nc1SC` [Example 57, Ethyl6-{3-[(benzylsulfonyl)carbamoyl]azetidin-1-yl}-5-cyano-2-(methylthio)nicotinate] had an IC50 of 0.018 µM.

In the case of `CCOC(=O)c1cc(C#N)c(N2CCC(C(=O)NS(=O)(=O)Cc3ccccc3)CC2)nc1OC` [Example 1, Ethyl6-{4-[(benzylsulfonyl)carbamoyl]piperidin-1-yl}-5-cyano-2-methoxynicotinate], the IC50 worked out at 0.012 µM.

`CCOC(=O)c1cc(C#N)c(N2CCC(C(=O)NS(=O)(=O)Cc3ccc(C(F)(F)F)cc3)CC2)nc1OC` [Example 13, Ethyl5-cyano-2-methoxy-6-[4-({[4-(trifluoromethyl)benzyl]sulfonyl}carbamoyl)piperidin-1-yl]nicotinate] showed a 50% inhibitory concentration (IC50) of 0.019 µM.

The compound `CCOC(=O)c1cc(C#N)c(N2CCC(C(=O)NS(=O)(=O)Cc3ccccc3)CC2)nc1SC` [Example 58, Ethyl6-{4-[(benzylsulfonyl)carbamoyl]piperidin-1-yl}-5-cyano-2-(methylthio)nicotinate] had an IC50 of 0.0077 µM. This IC50 is about 2.5-fold lower than that of the compound before.

`CCOC(=O)c1cc(C#N)c(N2CCC(C(=O)NS(=O)(=O)Cc3ccc(Cl)cc3)CC2)nc1OC` [Example 12, Ethyl6-(4-{[(4-chlorobenzyl)sulfonyl]carbamoyl}piperidin-1-yl)-5-cyano-2-methoxynicotinate] showed an IC50 of 0.009 µM.

In the case of `CCOC(=O)c1cc(C#N)c(N2CCC(C(=O)NS(=O)(=O)Cc3ccccc3)CC2)nc1OCC` [Example 3, Ethyl6-{4-[(benzylsulfonyl)carbamoyl]piperidin-1-yl}-5-cyano-2-ethoxynicotinate], the IC50 amounted to 0.012 µM.

`CCOC(=O)c1cc(C#N)c(N2CCC(C(=O)NS(=O)(=O)Cc3ccccc3)CC2)nc1C#N` [Example 5, Ethyl6-{4-[(benzylsulfonyl)carbamoyl]piperidin-1-yl}-2,5-dicyanonicotinate] displayed a 50% inhibitory concentration (IC50) of 0.009 µM.

`CCOC(=O)c1cc(C#N)c(N2CCC(C(=O)NS(=O)(=O)Cc3ccc(F)c(F)c3)CC2)nc1OC` [Example 14, Ethyl5-cyano-6-(4-{[(3,4-difluorobenzyl)sulfonyl]carbamoyl}piperidin-1-yl)-2-methoxynicotinate] had an IC50 of 0.013 µM. This IC50 and that of the compound before are within 1.5-fold of each other.

`CC(C)OC(=O)c1cc(C#N)c(N2CCC(C(=O)NS(=O)(=O)Cc3ccccc3)CC2)nc1C#N` [Example 50, Isopropyl6-{4-[(benzylsulfonyl)carbamoyl]piperidin-1-yl}-2,5-dicyanonicotinate] returned an IC50 of 0.016 µM. The IC50 values of the last two compounds are within 1.5-fold of each other.

Compound `CCOC(=O)c1cc(F)c(N2CCC(C(=O)NS(=O)(=O)Cc3ccccc3)CC2)nc1Cl` [Example 46, Ethyl6-{4-[(benzylsulfonyl)carbamoyl]piperidin-1-yl}-2-chloro-5-fluoronicotinate] registered an IC50 of 0.048 µM.

For the compound `CCCC(=O)c1cc(C#N)c(N2CCC(C(=O)NS(=O)(=O)Cc3ccc(Cl)cc3)CC2)nc1OC` [Example 52, 1-(5-Butyryl-3-cyano-6-methoxypyridin-2-yl)-N-[(4-chlorobenzyl)sulfonyl]piperidine-4-carboxamide], the IC50 amounted to 0.055 µM.

For `CCOC(=O)c1cc(C#N)c(N2CC(C(=O)NS(=O)(=O)Cc3ccc(F)cc3)C2)nc1OC` [Example 24, Ethyl5-cyano-6-(3-{[(4-fluorobenzyl)sulfonyl]carbamoyl}azetidin-1-yl)-2-methoxynicotinate], the IC50 turned out to be 0.009 µM.

Compound `CCOC(=O)c1cc(C#N)c(N2CC(C(=O)NS(=O)(=O)Cc3ccc(F)cc3Cl)C2)nc1OC` [Example 30, Ethyl6-(3-{[(2-chloro-4-fluorobenzyl)sulfonyl]carbamoyl}azetidin-1-yl)-5-cyano-2-methoxynicotinate] had an IC50 of 0.009 µM.

Compound `COc1nc(N2CCC(C(=O)NS(=O)(=O)Cc3ccc(Cl)cc3)CC2)c(C#N)cc1C(=O)OC(C)C` [Example 55, Isopropyl6-(4-{[(4-chlorobenzyl)sulfonyl]carbamoyl}piperidin-1-yl)-5-cyano-2-methoxynicotinate] gave an IC50 of 0.011 µM.

On to `COc1nc(N2CCC(C(=O)NS(=O)(=O)Cc3ccccc3)CC2)c(C#N)cc1C(=O)OC(C)C` [Example 60, Isopropyl6-{4-[(benzylsulfonyl)carbamoyl]piperidin-1-yl}-5-cyano-2-methoxynicotinate], for which the IC50 stood at 0.027 µM.

The compound `CCOC(=O)c1cc(C#N)c(N2CC(C(=O)NS(=O)(=O)Cc3ccccc3F)C2)nc1OCC` [Example 40, Ethyl5-cyano-2-ethoxy-6-(3-{[(2-fluorobenzyl)sulfonyl]carbamoyl}azetidin-1-yl)nicotinate] came in with an IC50 of 0.031 µM.

The compound `CCOC(=O)c1cc(Cl)c(N2CCC(C(=O)NS(=O)(=O)Cc3ccccc3)CC2)nc1SC` [Example 54, Ethyl6-{4-[(benzylsulfonyl)carbamoyl]piperidin-1-yl}-5-chloro-2-(methylthio)nicotinate] had an IC50 of 0.039 µM. This IC50 and that of the compound before are within 1.5-fold of each other.

In the case of `CCOC(=O)c1cc(C#N)c(N2CCC(C(=O)NS(=O)(=O)Cc3ccc(F)cc3Cl)CC2)nc1OC` [Example 17, Ethyl6-(4-{[(2-chloro-4-fluorobenzyl)sulfonyl]carbamoyl}piperidin-1-yl)-5-cyano-2-methoxynicotinate], the concentration for half-maximal inhibition (IC50) came to 0.024 µM. Compared with the last compound, the IC50 is about 1.6-fold lower.

`CCOCc1nc(N2CC(C(=O)NS(=O)(=O)Cc3ccccc3)C2)c(C#N)cc1C(=O)OCC` [Example 33, Ethyl6-{3-[(benzylsulfonyl)carbamoyl]azetidin-1-yl}-5-cyano-2-(ethoxymethyl)nicotinate] gave an IC50 of 0.069 µM.

In the case of `CCOC(=O)c1cc(C#N)c(N2CCC(C(=O)NS(=O)(=O)Cc3ccccc3)CC2)nc1CO` [Example 6, Ethyl6-{4-[(benzylsulfonyl)carbamoyl]piperidin-1-yl}-5-cyano-2-(hydroxymethyl)nicotinate], the IC50 was 0.017 µM.

`CCOC(=O)c1cc(C#N)c(N2CCC(C(=O)NS(=O)(=O)Cc3ccccc3Cl)CC2)nc1OC` [Example 9, Ethyl6-(4-{[(2-chlorobenzyl)sulfonyl]carbamoyl}piperidin-1-yl)-5-cyano-2-methoxynicotinate] came in with a half-inhibitory concentration (IC50) of 0.032 µM.

In turn, `CCOC(=O)c1cc(F)c(N2CCC(C(=O)NS(=O)(=O)Cc3ccccc3)CC2)nc1SC` [Example 44, Ethyl6-{4-[(benzylsulfonyl)carbamoyl]piperidin-1-yl}-5-fluoro-2-(methylthio)nicotinate] registered an IC50 of 0.042 µM.

For the compound `CCOCc1nc(N2CCC(C(=O)NS(=O)(=O)Cc3ccccc3)CC2)c(C#N)cc1C(=O)OCC` [Example 34, Ethyl6-{4-[(benzylsulfonyl)carbamoyl]piperidin-1-yl}-5-cyano-2-(ethoxymethyl)nicotinate], the 50% inhibitory concentration (IC50) amounted to 0.034 µM.

For the compound `CCOC(=O)c1cc(C#N)c(N2CCC(C(=O)NS(=O)(=O)Cc3ccc(Cl)cc3F)CC2)nc1OC` [Example 18, Ethyl6-(4-{[(4-chloro-2-fluorobenzyl)sulfonyl]carbamoyl}piperidin-1-yl)-5-cyano-2-methoxynicotinate], the half-maximal inhibitory concentration (IC50) was determined as 0.01 µM.

Compound `CCOC(=O)c1cc(C#N)c(N2CCC(C(=O)NS(=O)(=O)Cc3cccc(F)c3)CC2)nc1OC` [Example 10, Ethyl5-cyano-6-(4-{[(3-fluorobenzyl)sulfonyl]carbamoyl}piperidin-1-yl)-2-methoxynicotinate] returned an IC50 of 0.016 µM.

Compound `CCOC(=O)c1cc(C#N)c(N2CCC(C(=O)NS(=O)(=O)Cc3ccccc3)CC2)nc1SCC` [Example 4, Ethyl6-{4-[(benzylsulfonyl)carbamoyl]piperidin-1-yl}-5-cyano-2-(ethylthio)nicotinate] registered an IC50 of 0.006 µM.
